Experimental data published in ChEMBL document CHEMBL5131405, “Inhibition of ALK2 with bicyclic pyridyllactams” (Bioorg Med Chem Lett, 2022).

Assays:
[1] = target: T1, Bone morphogenetic protein receptor type-1A (Homo sapiens, UniProt P36894); assay: Inhibition of human recombinant ALK3 (198 to 525 residues) expressed in baculovirus-infected insect cells by ADP-Glo kinase assay
[2] = target: T2, Activin receptor type-1 (Homo sapiens, UniProt Q04771); assay: Inhibition of human recombinant ALK2 (172 to 499 residues) expressed in baculovirus-infected insect cells by ADP-Glo kinase assay
T2 sequence (Q04771 whole entry): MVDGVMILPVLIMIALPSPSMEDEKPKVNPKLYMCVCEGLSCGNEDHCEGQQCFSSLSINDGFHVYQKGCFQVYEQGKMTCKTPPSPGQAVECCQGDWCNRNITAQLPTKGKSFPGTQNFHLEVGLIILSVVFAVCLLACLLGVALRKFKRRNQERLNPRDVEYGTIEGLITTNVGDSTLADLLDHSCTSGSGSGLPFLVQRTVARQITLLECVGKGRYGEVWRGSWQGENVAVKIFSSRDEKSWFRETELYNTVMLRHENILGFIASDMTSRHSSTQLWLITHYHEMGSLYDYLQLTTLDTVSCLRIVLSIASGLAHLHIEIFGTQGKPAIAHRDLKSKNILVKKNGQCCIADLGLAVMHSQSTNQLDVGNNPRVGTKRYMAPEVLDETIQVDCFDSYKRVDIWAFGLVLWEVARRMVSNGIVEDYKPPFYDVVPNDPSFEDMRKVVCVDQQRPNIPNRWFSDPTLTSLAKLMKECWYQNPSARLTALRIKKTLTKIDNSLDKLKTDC

[3] = target: T2, Activin receptor type-1; assay: Inhibition of ALK2 in human HeLa cells assessed as inhibition of SMAD1 phosphorylation; assay type: cell-based
[4] = target: Activin receptor type-1-like (Homo sapiens, UniProt P37023); assay: Inhibition of ALK1 (unknown origin); assay type: toxicity
[5] = target: T2, Activin receptor type-1; assay: Inhibition of ALK2 (unknown origin)
[6] = target: T1, Bone morphogenetic protein receptor type-1A; assay: Inhibition of ALK3 (unknown origin)

T1 sequence (P36894 whole entry, the tested form may be a part): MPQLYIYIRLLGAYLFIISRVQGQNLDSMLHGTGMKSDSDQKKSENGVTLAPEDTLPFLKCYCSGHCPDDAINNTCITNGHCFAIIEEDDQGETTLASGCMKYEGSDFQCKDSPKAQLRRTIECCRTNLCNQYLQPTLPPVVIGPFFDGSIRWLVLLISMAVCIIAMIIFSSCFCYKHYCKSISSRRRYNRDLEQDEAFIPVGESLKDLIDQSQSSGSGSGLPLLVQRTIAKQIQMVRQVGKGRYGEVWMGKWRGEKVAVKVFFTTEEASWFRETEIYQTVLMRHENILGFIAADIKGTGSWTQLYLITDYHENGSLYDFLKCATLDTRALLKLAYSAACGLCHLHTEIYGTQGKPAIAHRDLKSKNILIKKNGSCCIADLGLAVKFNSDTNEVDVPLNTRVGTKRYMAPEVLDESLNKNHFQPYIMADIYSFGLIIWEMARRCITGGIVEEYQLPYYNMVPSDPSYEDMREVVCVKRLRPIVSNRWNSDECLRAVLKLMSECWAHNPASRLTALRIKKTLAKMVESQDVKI
Chain of Activin receptor type-1-like (P37023 whole entry): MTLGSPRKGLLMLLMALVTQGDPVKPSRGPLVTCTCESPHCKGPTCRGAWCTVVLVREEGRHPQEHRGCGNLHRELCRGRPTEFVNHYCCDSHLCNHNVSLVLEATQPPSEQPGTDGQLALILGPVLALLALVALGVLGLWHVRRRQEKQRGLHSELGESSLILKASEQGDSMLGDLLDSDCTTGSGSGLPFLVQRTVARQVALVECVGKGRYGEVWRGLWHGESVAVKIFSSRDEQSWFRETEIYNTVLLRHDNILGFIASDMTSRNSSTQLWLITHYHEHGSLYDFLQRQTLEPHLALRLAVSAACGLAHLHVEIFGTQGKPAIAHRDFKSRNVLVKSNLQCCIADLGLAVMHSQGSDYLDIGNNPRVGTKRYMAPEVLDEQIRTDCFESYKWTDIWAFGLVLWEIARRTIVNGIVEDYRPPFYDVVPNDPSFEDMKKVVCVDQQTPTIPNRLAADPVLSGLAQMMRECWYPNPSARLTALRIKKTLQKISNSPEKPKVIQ

IC50 [1]	IC50 [2]	IC50 [3]	IC50 [5]	IC50 [6]	Compound	IC50 [4]
560 nM	3.6 nM	–	–	–	C[C@@H]1CCCN1Cc1ccc(-c2cnc(N)c(C(=O)N[C@H]3CC[C@](C)(O)CC3)c2)cc1F	–
–	–	415 nM	5.3 nM	400 nM	Nc1ncc(-c2cnn(C3CCNCC3)c2)c2c1C(=O)N(C1C3CC4CC(C3)CC1C4)CC2 (stereo unspecified)	27 nM
